Target: T1, PDK1 (Homo sapiens, UniProt O15530)
T1 construct: His6 (N)
T1 sequence (O15530 51-556 limits assumed): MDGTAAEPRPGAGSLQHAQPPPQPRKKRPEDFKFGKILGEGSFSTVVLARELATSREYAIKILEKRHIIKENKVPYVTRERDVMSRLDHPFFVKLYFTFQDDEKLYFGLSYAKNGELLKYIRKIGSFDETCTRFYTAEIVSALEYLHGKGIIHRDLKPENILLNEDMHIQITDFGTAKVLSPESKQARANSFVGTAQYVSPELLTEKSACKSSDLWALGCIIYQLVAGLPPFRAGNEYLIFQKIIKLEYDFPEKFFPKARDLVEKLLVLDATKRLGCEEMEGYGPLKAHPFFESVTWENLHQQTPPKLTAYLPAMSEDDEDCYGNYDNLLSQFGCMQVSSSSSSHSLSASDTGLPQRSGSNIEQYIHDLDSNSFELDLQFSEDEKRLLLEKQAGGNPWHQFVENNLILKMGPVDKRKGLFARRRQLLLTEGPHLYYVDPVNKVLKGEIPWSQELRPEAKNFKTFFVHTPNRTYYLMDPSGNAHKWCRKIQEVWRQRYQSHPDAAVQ
Assay: Test for the inhibition of PDK1 (flashplate, 33P-ATP), enzymatic
Assay type: biochemical
Conditions: prior art compounds vs compounds according to the invention
Description: 4.0 Test for the Inhibition of PDK1
The experimental batches are carried out in a flashplate system with 384 wells/microtitration plate.
In each case, the PDK1 sample His6-PDK1(1-50)(3.4 nM), the PDK1 substrate biotin-bA-bA-[…] (400 nM), 4 μM ATP (with 0.2 μCi of ^33P-ATP/well) and the test substance in 50 μl of conventional experimental solution per well are incubated at 30° C. for 60 min. The test substances are employed in corresponding concentrations (if desired in a dilution series). The control is carried out without test substance. The reaction is stopped using standard methods and washed. The activity of the kinase is measured via the incorporated radioactivity in top count. In order to determine the non-specific kinase reaction (blank value), the experimental batches are carried out in the presence of 100 nM staurosporine.
The radioactivity (decompositions per minute) of the blank value (no use of test substance in the presence of staurosporine) is subtracted from all other radioactivity values. The controls (kinase activity without test substance) are set equal to 100 percent and all other radioactivity values (after subtracting the blank value) are expressed set in relation thereto (for example in % of the control).
IC50 values (50% inhibition) are determined with the aid of statistics programmes, such as, for example, RS1.

| inhibition of PDK1 (enzymatic), activity compared with the compounds according to the invention | Compound |
| --- | --- |
| lower activity | c1cncc(CNc2nnc(-c3c[nH]c4ncccc34)o2)c1 [Compound 88, Pyridin-3-ylmethyl-[5-(1H-pyrrolo-[2,3-b]pyridin-3-yl)-1,3,4-oxadiazol-2-yl]amine] |
| lower activity | COc1cc(Nc2nnc(-c3c[nH]c4ncccc34)o2)cc(OC)c1 [Compound 89, (3,5-Dimethoxyphenyl)-[5-(1H-pyrrolo[2,3-b]pyridin-3-yl)-1,3,4-oxadiazol-2-yl]amine] |
| lower activity | COc1cccc(CNc2nnc(-c3c[nH]c4ncc(-c5cn[nH]c5)cc34)o2)c1 [Compound 90, (3-Methoxybenzyl)-{5-[5-(1H-pyrazol-4-yl)-1H-pyrrolo [2,3-b]pyridin-3-yl]-1,3,4-oxadiazol-2-yl}amine] |
| lower activity | COc1cccc(CNc2nnc(-c3c[nH]c4ncccc34)o2)c1 [Compound 95, (3-Methoxybenzyl)-[5-(1H-pyrrolo-[2,3-b]pyridin-3-yl)-1,3,4-oxadiazol-2-yl]amine] |

Test system: not given
Assay: not given
Conditions: not given

| melting point [°C] | Compound |
| --- | --- |
| 295 to 297 | Cn1cc(-c2cnc3[nH]cc(-c4nnc(Nc5ccccc5F)o4)c3c2)cn1 [Compound 60] |
| 274 to 275 | CCOc1ccccc1Nc1nnc(-c2c[nH]c3ncc(-c4cnn(C)c4)cc23)o1 [Compound 62, (2-Ethoxyphenyl)-{5-[5-(1-methyl-1H-pyrazol-4-yl)-1H-pyrrolo[2,3-b]-pyridin-3-yl]-1,3,4-oxadiazol-2-yl}-amine] |
| 253 to 254 | COc1ccccc1CNc1nnc(-c2c[nH]c3ncc(-c4cnn(C)c4)cc23)o1 [Compound 63, (2-Methoxybenzyl)-{5-[5-(1-methyl-1H-pyrazol-4-yl)-1H-pyrrolo[2,3-b]-pyridin-3-yl]-1,3,4-oxadiazol-2-yl}-amine] |
| 324 to 326 | Cn1cc(-c2cnc3[nH]cc(-c4nnc(Nc5ccccc5)o4)c3c2)cn1 [Compound 75, {5-[5-(1-Methyl-1H-pyrazol-4-yl)-1H-pyrrolo[2,3-b]pyridin-3-yl]-1,3,4-oxadiazol-2-yl}phenylamine] |
| 281 to 283 | Cn1cc(-c2cnc3[nH]cc(-c4nnc(NCc5ccc6c(c5)OCO6)o4)c3c2)cn1 [Compound 82, Benzo-1,3-dioxol-5-ylmethyl-{5-[5-(1-methyl-1H-pyrazol-4-yl)-1H-pyrrolo[2,3-b]pyridin-3-yl]-1,3,4-oxadiazol-2-yl}amine] |

— patent US8993564B2, “7-azaindole derivatives suitable for treatment of cancers” (Merck Patent GmbH, priority 2011, dated 2015)
